Here are results for seven compounds from ChEMBL document CHEMBL1201862, “PubChem BioAssay data set” (2004).

Common to all, as to test: DTP human tumour cell line panel, 48 h
In assay [1] the test system is A498.
The test system of assay [2] is DU-145.
Assay [3] concerns HCT-15.
Assay [4] has as its system HL-60.
For assay [5], the system named is HT-29.
Assay [6] deals with IGROV-1.
In assay [7] the test system is KM12.
For assay [8], the system named is MDA-MB-231.
For assay [9], the system named is MDA-N.
The subject of assay [10] is NCI-H226.
Assay [11] relates to NCI-H522.
Assay [12] has as its system OVCAR-3.
For assay [13], the system named is OVCAR-4.
Assay [14] has as its system RPMI-8226.
Assay [15] has as its system SF-295.
Assay [16] deals with SK-MEL-28.
The test system of assay [17] is SW-620.
Assay [18] deals with U-251.
The subject of assay [19] is UACC-257.
In assay [20] the test system is UO-31.

Each structure is given as a SMILES string.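 Briefly, cells in 96-well plates were exposed to five compound concentrations for 48 h, and endpoints were estimated by linear interpolation. GI50 is the concentration that inhibits growth by half.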 Calls of active or inactive are those of the source. Cut-off read from the data, not from the text of the source: active = GI50 up to about 1.1 µM and inactive = higher. Bounds are passed on as bounds.

For orientation: GI50 means the concentration giving 50% growth inhibition. Regarding `O=C(O)CSc1ccccc1C(=O)O`, the GI50 is > 100 µM (inactive) in assay [1]; > 100 µM (inactive) in [2]; over 100 µM in [3]; 6.03 µM (inactive) in assay [4]; > 100 µM (inactive) in assay [5]; > 100 µM (inactive) in [6]. The GI50 in [7] was > 100 µM (inactive); in assay [8] it was > 100 µM (inactive); in assay [9] it was > 100 µM (inactive); in assay [10] it was 99.1 µM (inactive); in assay [11] it was > 100 µM (inactive); in [12] it was > 100 µM (inactive). For the same compound, the GI50 in assay [13], in [14], in [15], in assay [16], in [17] and in [18] was > 100 µM (inactive) throughout. The values for the GI50 in [19] and in [20] were 15 µM (inactive) and > 100 µM (inactive), respectively.

For `NCC(=O)Nc1ccc(Cl)cc1C(=O)c1ccc[nH]1`, the GI50 is > 63.1 µM (inactive) in assay [1]; > 100 µM (inactive) in assay [2]; 38.5 µM in assay [3]; 15.1 µM (inactive) in assay [4]; 25.5 µM (inactive) in [5]; > 48.4 µM (inactive) in [6]. The GI50 is 34 µM (inactive) in [7]; > 51.1 µM (inactive) in [8]; 23.4 µM (inactive) in assay [9]; 46.3 µM (inactive) in assay [10]; 11.5 µM (inactive) in assay [11]; 40.9 µM (inactive) in assay [12]. In addition, the GI50 in assay [13] was 21.7 µM (inactive); in assay [14], 5.57 µM (inactive); in [15] it was > 100 µM (inactive); in [16] it was > 93.5 µM (inactive); in assay [17] it was 13.6 µM (inactive); in [18], 15.2 µM (inactive). In addition, the results for the GI50 in assay [19] and in assay [20] were > 100 µM (inactive) and 21.7 µM (inactive), respectively.

For the compound `CCNC(=S)NNC(=O)C12CC3CC(CC(C3)C1)C2`, the GI50 was > 100 µM (inactive) in assay [1]; > 100 µM (inactive) in [2]; over 100 µM in assay [3]; > 100 µM (inactive) in assay [4]; > 100 µM (inactive) in assay [5]; > 100 µM (inactive) in assay [6]. The GI50 in assay [7], in assay [8], in [9], in assay [10], in [11] and in assay [12] was > 100 µM (inactive) each time. In addition, the GI50 in assay [13], in [14], in [15], in assay [16], in assay [17] and in [18] was > 100 µM (inactive) each time. The GI50 in assay [19] and in assay [20] was > 100 µM (inactive) each time.

Consider `O=C1c2cscc2C(=O)C1(O)O`, for which the GI50 is > 100 µM (inactive) in [1]; > 100 µM (inactive) in assay [2]; 45.8 µM in [3]; 26.1 µM (inactive) in assay [4]; 70 µM (inactive) in assay [5]; > 100 µM (inactive) in [6]. For the same compound, the GI50 in assay [7] was > 100 µM (inactive); in assay [8], 74.1 µM (inactive); in assay [9], 40.4 µM (inactive); in assay [10], > 100 µM (inactive); in assay [11], 18.7 µM (inactive); in assay [12], 25.2 µM (inactive). Further, the GI50 is 25.6 µM (inactive) in assay [13]; 45 µM (inactive) in [14]; > 100 µM (inactive) in [15]; > 100 µM (inactive) in [16]; 20.4 µM (inactive) in [17]; > 100 µM (inactive) in assay [18]. The GI50 in assay [19] is 24.9 µM (inactive); in [20], 27.3 µM (inactive).

For the compound `Cc1sc2[nH]c(=O)oc(=O)c2c1C`, the GI50 was > 100 µM (inactive) in assay [1]; > 100 µM (inactive) in assay [2]; over 89.9 µM in assay [3]; 37 µM (inactive) in [4]; > 71.9 µM (inactive) in [5]; > 75.3 µM (inactive) in assay [6]. Further, the GI50 in assay [7] is 34.9 µM (inactive); in [8], > 70.8 µM (inactive); in assay [9], 58.2 µM (inactive); in assay [10], > 74.5 µM (inactive); in [11], 26 µM (inactive); in assay [12], 55 µM (inactive). Further, the GI50 in assay [13] was 67.6 µM (inactive); in [14], 41.2 µM (inactive); in assay [15] it was > 77.8 µM (inactive); in assay [16] it was > 71.8 µM (inactive); in [17], > 80.4 µM (inactive); in assay [18] it was 51.4 µM (inactive). In addition, the GI50 in [19] is > 100 µM (inactive); in assay [20], 33 µM (inactive).

As to `COc1ccc(/C(=N/N=c2[nH]c3ccccc3[nH]2)C(=O)O)cc1`, the GI50 in assay [1] is > 100 µM (inactive); in assay [2] it was > 100 µM (inactive); in [3], over 100 µM; in [4], > 100 µM (inactive); in [5], > 100 µM (inactive); in assay [6] it was > 100 µM (inactive). Moreover, the GI50 in assay [7], in [8], in assay [9], in assay [10], in assay [11] and in assay [12] was > 100 µM (inactive) throughout. The GI50 in assay [13], in assay [14], in assay [15], in assay [16], in [17] and in [18] was > 100 µM (inactive) throughout. For the same compound, the GI50 in assay [19] and in assay [20] was > 100 µM (inactive) in each case.

For `Cc1cccc2c(=O)c3cccc([C@@H](C)C(=O)O)c3oc12`, the GI50 was > 100 µM (inactive) in assay [1]; > 100 µM (inactive) in [2]; over 100 µM in [3]; > 100 µM (inactive) in assay [4]; > 100 µM (inactive) in assay [5]; > 100 µM (inactive) in assay [6]. Further, the GI50 in assay [7], in assay [8], in [9], in assay [10], in assay [11] and in assay [12] was > 100 µM (inactive) throughout. The GI50 in assay [13], in [14], in assay [15], in [16], in assay [17] and in [18] was > 100 µM (inactive) throughout. Moreover, the GI50 in assay [19] and in [20] was > 100 µM (inactive) each time.
